From US6759212B1, “Cell cycle-regulating proteins” (Chugai Seiyaku Kabushiki Kaisha, priority 1997, dated 2004)

Experiments:
[1] = tested on: human diploid fibroblast KD cells; experiment: Abnormal cytokinesis: cells having two or more nuclei after transient transfection; format: cell-based; details: 72 hours after transfection
From the text: (§1) To confirm the generality of this observation, AIM-1 (WT) and AIM-1 (K-R) plasmids were transiently expressed in NRK-49F cells and human diploid fibroblast KD cells and the results were compared with those obtained in a control transfected with vector alone. These constructs were transfected into cell-s with a reporter construct […] to prepare β-galactosidase-expressing plasmids for use as a positive internal control for transfection (Table 1).
(§2) (2) Abnormal Cytokinesis in Cells Expressing AIM-1 (K-R) Plasmid FLAG-AIM-1 (WT), FLAG-AIM-1 (K-R) or a control plasmid pEF/hygI was cotransfected with a reporter construct RSV-β-galactosidase at a ratio of 10:1 into NRK-49F cells and human diploid fibroblast KD cells (a kind gift of late Dr. Takeo Kakunaga) by Lipofectin method. After 24 hours, 1×10^3 cells were seeded per 60 mm dish, and 72 hours after transfection, cells were fixed in 1.25% glutaraldehyde/PBS and stained by a method described in literature (Shu et al., J.C.S. 108:2955-62, 1995) to observe expression of β-galactosidase. MvlLu cells were also tested under the conditions described in (1) B above.
(§3) 1. The figures in the table mean the percentage of cells having two or more nuclei to β-galactosidase positive cells for NRK-49F cells and KD cells or the percentage of cells having two or more nuclei to the total number of cells for MvlLu cells. […]

NRK-49F cells = experiment: as above; format: cell-based, rat; details: 72 hours after transfection
From the text: as §1, §2, §3

Mv1Lu cells [2] = experiment: FACS analysis of DNA content (propidium iodide); format: cell-based, mink; details: 72 hour-induction
Protocol: (§4) MvlLu cells carrying vector alone, wild-type FLAG-AIM-1 (WT) or FLAG-AIM-1 (K-R) were grown in the presence or absence of doxycycline (tetracycline analog) for 24 hours and then subjected to western blot with anti-FLAG antibody (FIG. 4A). […] In addition, the size of these cells was much larger than normal cells (FIGS. 4Bf and 5D). In these abnormal cells, however, spindle. functions including chromosome disjunction and late anaphase spindle elongation as well as nuclear division appeared unaffected (data not shown). This was further confirmed by flow cytometry (FACS) (FIG. 4C). […] Namely, apocytes appeared because karyokinesis advances but cytokinesis is inhibited.
Cell samples were harvested and fixed with ethanol, stained with propidium iodide for FACS analysis.

Mv1Lu cells [3] = experiment: Abnormal cytokinesis: cells having two or more nuclei, tetracycline-inducible expression, Giemsa staining; format: cell-based, mink; details: Mv1Lu, 72 hours
Protocol: as §4
Then, asynchronous cells transfected with vector alone (a, d), FLAG-AIM-1 (WT) (b, e) or FLAG-AIM-1 (K-R) (c, f) were grown with (a-c) or without (d-f) DOX for 72 hours and stained with Giemsa's solution. Results are shown in FIG. 4B, wherein upper panels are called as a, b and c from left to right, and lower panels are called as d, e and f from left to right.
(2) Abnormal Cytokinesis in Cells Expressing AIM-1 (K-R) Plasmid FLAG-AIM-1 (WT), FLAG-AIM-1 (K-R) or a control plasmid pEF/hygI was cotransfected with a reporter construct RSV-β-galactosidase at a ratio of 10:1 into NRK-49F cells and human diploid fibroblast KD cells (a kind gift of late Dr. Takeo Kakunaga) by Lipofectin method. […]

Mv1Lu cells [4] = experiment: Growth for 2 weeks with or without DOX, Giemsa staining; format: cell-based, mink; details: grown 2 weeks with or without doxycycline
Protocol: The nuclei of these AIM-1 (K-R)-expressing cells divided 3 to 4 times during 4 to 5 days, resulting in more than 10 nuclei per cell (FIG. 5D).
Mv1Lu cells transfected with FLAG-AIM-1 (WT) or FLAG-AIM-1 (K-R) were grown with or without DOX for 2 weeks and stained with Giemsa's solution.

Substance: AIM-1 (WT): wild-type rat AIM-1 protein kinase labeled with FLAG at the N-terminus, expressed from plasmid pUHD10-3 or pEF/hygI
- percentage of cells having two or more nuclei to β-galactosidase positive cells [1]: 4.8%
- percentage of cells having two or more nuclei to β-galactosidase positive cells (NRK-49F cells): 7.8%
- cell population with 4N or 8N DNA / cell cycle pattern (FACS) (Mv1Lu cells [2]): normal cell cycle pattern
- percentage of cells having two or more nuclei to the total number of cells (Mv1Lu cells [3]; DOX(+) (not induced)): 0.9%
- percentage of cells having two or more nuclei to the total number of cells (Mv1Lu cells [3]; DOX(−) (induced)): 2.8%
- effect on growth potency (mitotic inhibition) (Mv1Lu cells [4]): not
